Laboratory results published in the kinase profiling compilation of Christmann-Franck et al. (2016).

Key:
Test in all cases: KINOMEscan competition binding
Details in all cases: compound 2.0 µM
MAP2K3 (human) = MAP2K3 (human) (UniProt P46734)
CDC42BPA (human) = CDC42BPA (human) (UniProt Q5VT25)
CAMK4 (human) = CAMK4 (human) (UniProt Q16566)
EPHB3 (human) = EPHB3 (human) (UniProt P54753)
CDK7 (human) = CDK7 (human) (UniProt P50613)
SRPK1 (human) = SRPK1 (human) (UniProt Q96SB4)
PIM2 (human) = PIM2 (human) (UniProt Q9P1W9)
SNRK (human) = SNRK (human) (UniProt Q9NRH2)
RPS6KA1 KD1 (human) = RPS6KA1 KD1 (human) (UniProt Q15418)
MAP4K3 (human) = MAP4K3 (human) (UniProt Q8IVH8)
PRKD1 (human) = PRKD1 (human) (UniProt Q15139)
TNNI3K (human) = TNNI3K (human) (UniProt Q59H18)
TEK (human) = TEK (human) (UniProt Q02763)
[1] = test system: EGFR (human), P00533 [746-750 del]
PTK2 (human) = PTK2 (human) (UniProt Q05397)
[2] = test system: EIF2AK4 KD2 (human), Q9P2K8 [S808G]
STK24 (human) = STK24 (human) (UniProt Q9Y6E0)
PDPK1 (human) = PDPK1 (human) (UniProt O15530)
CHEK2 (human) = CHEK2 (human) (UniProt O96017)
MAP2K6 (human) = MAP2K6 (human) (UniProt P52564)
[3] = target: JAK1 JH1 catalytic (human) (UniProt P23458)
EPHB4 (human) = EPHB4 (human) (UniProt P54760)
CAMK1G (human) = CAMK1G (human) (UniProt Q96NX5)
CAMK1G (human), sequence (Q96NX5 whole entry, looked up): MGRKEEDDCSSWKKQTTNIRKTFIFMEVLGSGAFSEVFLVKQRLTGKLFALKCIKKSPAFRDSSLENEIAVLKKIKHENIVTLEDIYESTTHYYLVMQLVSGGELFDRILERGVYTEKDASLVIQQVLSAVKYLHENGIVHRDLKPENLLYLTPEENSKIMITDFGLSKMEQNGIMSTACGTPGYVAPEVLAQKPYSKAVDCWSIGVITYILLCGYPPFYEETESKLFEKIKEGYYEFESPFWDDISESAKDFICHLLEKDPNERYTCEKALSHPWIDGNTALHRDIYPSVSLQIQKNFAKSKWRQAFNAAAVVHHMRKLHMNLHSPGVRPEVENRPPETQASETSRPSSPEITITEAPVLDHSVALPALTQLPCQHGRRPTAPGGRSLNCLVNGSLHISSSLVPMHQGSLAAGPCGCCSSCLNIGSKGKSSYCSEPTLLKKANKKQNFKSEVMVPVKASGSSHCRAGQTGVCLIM

AKT2 (human) = AKT2 (human) (UniProt P31751)
AKT2 (human), sequence (P31751 whole entry, looked up): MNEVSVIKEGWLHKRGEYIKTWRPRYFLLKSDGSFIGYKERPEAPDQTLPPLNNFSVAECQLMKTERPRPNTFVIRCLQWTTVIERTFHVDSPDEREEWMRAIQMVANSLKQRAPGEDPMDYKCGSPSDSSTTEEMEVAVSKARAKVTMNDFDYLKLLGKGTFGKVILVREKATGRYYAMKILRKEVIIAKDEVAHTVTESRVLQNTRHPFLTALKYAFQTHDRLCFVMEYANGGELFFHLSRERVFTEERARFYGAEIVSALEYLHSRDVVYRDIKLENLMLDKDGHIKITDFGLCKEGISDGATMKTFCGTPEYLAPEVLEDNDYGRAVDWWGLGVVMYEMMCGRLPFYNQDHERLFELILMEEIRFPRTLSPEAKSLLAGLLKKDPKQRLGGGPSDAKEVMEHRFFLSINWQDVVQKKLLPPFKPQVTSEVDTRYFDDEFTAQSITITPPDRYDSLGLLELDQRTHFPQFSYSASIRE

FLT4 (human) = FLT4 (human) (UniProt P35916)
FLT4 (human), sequence (P35916 whole entry, looked up): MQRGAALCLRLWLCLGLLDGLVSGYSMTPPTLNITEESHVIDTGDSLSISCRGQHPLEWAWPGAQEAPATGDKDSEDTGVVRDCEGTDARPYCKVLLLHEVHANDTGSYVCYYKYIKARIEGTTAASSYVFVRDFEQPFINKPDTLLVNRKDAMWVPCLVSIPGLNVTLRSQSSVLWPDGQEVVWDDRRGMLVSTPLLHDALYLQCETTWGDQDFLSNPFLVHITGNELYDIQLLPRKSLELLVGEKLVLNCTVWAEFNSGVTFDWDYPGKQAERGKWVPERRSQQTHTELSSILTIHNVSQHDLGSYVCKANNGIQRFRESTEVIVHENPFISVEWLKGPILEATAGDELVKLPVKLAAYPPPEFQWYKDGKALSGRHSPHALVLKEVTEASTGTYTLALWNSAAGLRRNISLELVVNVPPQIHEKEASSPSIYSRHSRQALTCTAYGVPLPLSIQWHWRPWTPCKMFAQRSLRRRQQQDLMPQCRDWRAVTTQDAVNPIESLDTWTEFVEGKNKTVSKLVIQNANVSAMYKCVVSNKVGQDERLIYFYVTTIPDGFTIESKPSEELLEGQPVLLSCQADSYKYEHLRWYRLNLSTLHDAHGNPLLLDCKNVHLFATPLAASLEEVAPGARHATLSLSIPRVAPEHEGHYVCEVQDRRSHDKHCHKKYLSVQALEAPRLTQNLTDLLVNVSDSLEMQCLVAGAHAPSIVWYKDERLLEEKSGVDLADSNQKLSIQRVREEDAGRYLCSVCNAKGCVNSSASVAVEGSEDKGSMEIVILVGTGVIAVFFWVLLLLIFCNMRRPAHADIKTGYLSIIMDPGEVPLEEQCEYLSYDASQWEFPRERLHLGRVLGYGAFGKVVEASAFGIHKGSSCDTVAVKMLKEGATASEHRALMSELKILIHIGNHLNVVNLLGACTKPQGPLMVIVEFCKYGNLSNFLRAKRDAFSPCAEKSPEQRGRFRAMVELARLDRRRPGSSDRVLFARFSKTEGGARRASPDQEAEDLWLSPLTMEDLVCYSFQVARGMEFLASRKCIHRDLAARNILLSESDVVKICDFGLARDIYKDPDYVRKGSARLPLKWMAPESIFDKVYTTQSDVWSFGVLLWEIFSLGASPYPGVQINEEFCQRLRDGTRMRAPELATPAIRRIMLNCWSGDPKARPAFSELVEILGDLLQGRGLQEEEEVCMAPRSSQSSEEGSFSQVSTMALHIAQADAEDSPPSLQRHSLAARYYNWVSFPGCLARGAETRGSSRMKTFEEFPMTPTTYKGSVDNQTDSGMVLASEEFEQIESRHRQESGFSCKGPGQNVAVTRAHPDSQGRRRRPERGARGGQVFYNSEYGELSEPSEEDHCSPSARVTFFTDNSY

IRAK4 (human) = IRAK4 (human) (UniProt Q9NWZ3)
MINK1 (human) = MINK1 (human) (UniProt Q8N4C8)
TNK2 (human) = TNK2 (human) (UniProt Q07912)
PAK3 (human) = PAK3 (human) (UniProt O75914)
PAK3 (human), sequence (O75914 whole entry, looked up): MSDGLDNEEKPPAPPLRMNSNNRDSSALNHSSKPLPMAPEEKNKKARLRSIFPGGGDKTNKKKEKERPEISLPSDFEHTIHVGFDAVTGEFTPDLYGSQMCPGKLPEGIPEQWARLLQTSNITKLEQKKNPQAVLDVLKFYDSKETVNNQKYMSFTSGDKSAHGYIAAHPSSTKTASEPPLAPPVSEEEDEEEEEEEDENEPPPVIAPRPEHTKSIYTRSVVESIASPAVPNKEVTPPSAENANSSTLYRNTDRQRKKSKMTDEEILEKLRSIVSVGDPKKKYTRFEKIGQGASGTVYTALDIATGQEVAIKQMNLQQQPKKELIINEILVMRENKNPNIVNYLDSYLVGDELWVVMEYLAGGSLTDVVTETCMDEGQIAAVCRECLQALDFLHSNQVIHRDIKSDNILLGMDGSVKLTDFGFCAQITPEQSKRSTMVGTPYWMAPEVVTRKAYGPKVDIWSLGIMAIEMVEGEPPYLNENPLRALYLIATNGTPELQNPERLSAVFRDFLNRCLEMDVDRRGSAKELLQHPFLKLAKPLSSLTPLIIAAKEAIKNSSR

CDK16 (human) = CDK16 (human) (UniProt Q00536)
[4] = test system: FLT3 (human), P36888 [ITD]
FLT3 (human), P36888 [ITD], sequence (P36888 whole entry, looked up, change not shown): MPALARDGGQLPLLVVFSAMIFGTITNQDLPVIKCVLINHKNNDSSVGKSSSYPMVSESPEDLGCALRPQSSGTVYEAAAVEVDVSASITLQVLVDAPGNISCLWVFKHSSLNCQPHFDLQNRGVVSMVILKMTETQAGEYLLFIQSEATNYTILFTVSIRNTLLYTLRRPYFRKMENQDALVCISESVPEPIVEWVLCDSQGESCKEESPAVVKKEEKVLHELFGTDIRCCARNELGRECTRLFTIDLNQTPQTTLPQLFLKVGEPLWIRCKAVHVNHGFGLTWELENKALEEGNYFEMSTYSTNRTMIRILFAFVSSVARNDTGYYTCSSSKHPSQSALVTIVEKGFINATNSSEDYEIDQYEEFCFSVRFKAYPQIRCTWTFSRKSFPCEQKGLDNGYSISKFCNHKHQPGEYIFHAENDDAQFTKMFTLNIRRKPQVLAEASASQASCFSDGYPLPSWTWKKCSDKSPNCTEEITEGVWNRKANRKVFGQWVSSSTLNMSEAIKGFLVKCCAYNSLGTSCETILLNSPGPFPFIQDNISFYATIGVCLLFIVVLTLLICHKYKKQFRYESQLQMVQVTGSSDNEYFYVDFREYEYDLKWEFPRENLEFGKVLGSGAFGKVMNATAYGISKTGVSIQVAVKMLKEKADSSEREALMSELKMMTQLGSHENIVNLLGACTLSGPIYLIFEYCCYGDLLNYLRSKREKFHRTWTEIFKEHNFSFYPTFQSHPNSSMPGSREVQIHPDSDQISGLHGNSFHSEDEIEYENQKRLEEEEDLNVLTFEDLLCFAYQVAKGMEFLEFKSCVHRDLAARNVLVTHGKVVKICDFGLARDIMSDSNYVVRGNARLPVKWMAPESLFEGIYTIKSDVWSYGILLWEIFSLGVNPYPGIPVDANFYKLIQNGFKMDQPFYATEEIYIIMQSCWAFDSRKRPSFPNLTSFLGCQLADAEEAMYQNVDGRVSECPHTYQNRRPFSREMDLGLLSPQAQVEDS

PIP5K1A (human) = PIP5K1A (human) (UniProt Q99755)
CSNK1G3 (human) = CSNK1G3 (human) (UniProt Q9Y6M4)
CSNK1G3 (human), sequence (Q9Y6M4 whole entry, looked up): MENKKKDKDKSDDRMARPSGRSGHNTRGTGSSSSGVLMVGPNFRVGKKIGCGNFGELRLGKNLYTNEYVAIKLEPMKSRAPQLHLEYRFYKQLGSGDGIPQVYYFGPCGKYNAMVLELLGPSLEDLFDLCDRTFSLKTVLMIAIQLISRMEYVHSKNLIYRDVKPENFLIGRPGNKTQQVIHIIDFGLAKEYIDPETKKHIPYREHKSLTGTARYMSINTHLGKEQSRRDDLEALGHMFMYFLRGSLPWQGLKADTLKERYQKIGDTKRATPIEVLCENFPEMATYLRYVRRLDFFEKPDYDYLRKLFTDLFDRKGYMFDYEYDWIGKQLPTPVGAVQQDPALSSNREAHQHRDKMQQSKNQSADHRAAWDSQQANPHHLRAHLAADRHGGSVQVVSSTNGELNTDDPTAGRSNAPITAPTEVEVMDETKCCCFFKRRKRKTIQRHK

PIK3C2G (human) = PIK3C2G (human) (UniProt O75747)
DDR1 (human) = DDR1 (human) (UniProt Q08345)
STK32C (human) = STK32C (human) (UniProt Q86UX6)
PAK4 (human) = PAK4 (human) (UniProt O96013)
EPHA3 (human) = EPHA3 (human) (UniProt P29320)
NIM1 (human) = NIM1 (human) (UniProt Q8IY84)
PKN3 (M.tuberculosis) = PKN3 (M.tuberculosis) (UniProt Q6P5Z2)
TLK2 (human) = TLK2 (human) (UniProt Q86UE8)
FES (human) = FES (human) (UniProt P07332)
DYRK1A (human) = DYRK1A (human) (UniProt Q13627)

SRPK1 (human), sequence (Q96SB4 whole entry, looked up): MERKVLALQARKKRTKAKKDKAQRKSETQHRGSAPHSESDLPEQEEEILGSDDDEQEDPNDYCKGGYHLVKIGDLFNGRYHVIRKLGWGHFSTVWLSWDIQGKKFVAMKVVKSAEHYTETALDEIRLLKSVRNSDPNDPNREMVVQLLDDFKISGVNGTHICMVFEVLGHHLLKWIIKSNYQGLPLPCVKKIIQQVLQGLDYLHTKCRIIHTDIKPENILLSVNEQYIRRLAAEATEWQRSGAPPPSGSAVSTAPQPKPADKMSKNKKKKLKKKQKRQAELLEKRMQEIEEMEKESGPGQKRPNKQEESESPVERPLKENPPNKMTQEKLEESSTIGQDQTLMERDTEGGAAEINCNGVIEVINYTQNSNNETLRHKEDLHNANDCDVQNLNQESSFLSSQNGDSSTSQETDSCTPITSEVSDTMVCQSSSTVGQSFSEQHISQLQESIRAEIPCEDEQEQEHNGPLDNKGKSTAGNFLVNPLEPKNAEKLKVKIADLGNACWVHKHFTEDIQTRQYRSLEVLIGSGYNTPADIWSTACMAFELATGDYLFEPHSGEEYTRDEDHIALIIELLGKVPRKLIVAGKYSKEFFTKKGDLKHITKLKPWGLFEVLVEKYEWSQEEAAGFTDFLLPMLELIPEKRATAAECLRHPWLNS

N#Cc1ccc2ncnc(NCCc3ccc4ccccc4c3)c2c1
kinase still bound, per cent of control (MAP2K3 (human)): 86%
kinase still bound, per cent of control (CDC42BPA (human)): 100%
kinase still bound, per cent of control (CAMK4 (human)): 100%
kinase still bound, per cent of control (EPHB3 (human)): 100%
kinase still bound, per cent of control (CDK7 (human)): 80%
kinase still bound, per cent of control (SRPK1 (human)): 100%
kinase still bound, per cent of control (PIM2 (human)): 89%
kinase still bound, per cent of control (SNRK (human)): 36%
kinase still bound, per cent of control (RPS6KA1 KD1 (human)): 81%
kinase still bound, per cent of control (MAP4K3 (human)): 100%
kinase still bound, per cent of control (PRKD1 (human)): 100%
kinase still bound, per cent of control (TNNI3K (human)): 100%
kinase still bound, per cent of control (TEK (human)): 100%
kinase still bound, per cent of control [1]: 100%
kinase still bound, per cent of control (PTK2 (human)): 88%
kinase still bound, per cent of control [2]: 80%
kinase still bound, per cent of control (STK24 (human)): 92%
kinase still bound, per cent of control (PDPK1 (human)): 100%
kinase still bound, per cent of control (CHEK2 (human)): 62%
kinase still bound, per cent of control (MAP2K6 (human)): 100%
kinase still bound, per cent of control [3]: 59%
kinase still bound, per cent of control (EPHB4 (human)): 100%
kinase still bound, per cent of control (CAMK1G (human)): 86%
kinase still bound, per cent of control (AKT2 (human)): 100%
kinase still bound, per cent of control (FLT4 (human)): 100%
kinase still bound, per cent of control (IRAK4 (human)): 100%
kinase still bound, per cent of control (MINK1 (human)): 100%
kinase still bound, per cent of control (TNK2 (human)): 97%
kinase still bound, per cent of control (PAK3 (human)): 100%
kinase still bound, per cent of control (CDK16 (human)): 100%
kinase still bound, per cent of control [4]: 87%
kinase still bound, per cent of control (PIP5K1A (human)): 100%
kinase still bound, per cent of control (CSNK1G3 (human)): 81%
kinase still bound, per cent of control (PIK3C2G (human)): 100%
kinase still bound, per cent of control (DDR1 (human)): 96%
kinase still bound, per cent of control (STK32C (human)): 100%
kinase still bound, per cent of control (PAK4 (human)): 91%
kinase still bound, per cent of control (EPHA3 (human)): 91%
kinase still bound, per cent of control (NIM1 (human)): 82%
kinase still bound, per cent of control (PKN3 (M.tuberculosis)): 100%
kinase still bound, per cent of control (TLK2 (human)): 94%
kinase still bound, per cent of control (FES (human)): 100%
kinase still bound, per cent of control (DYRK1A (human)): 100%
